{"source": "paper PMC9555642", "about": "(PLoS ONE, 2022)", "key": {"Sigma-1 receptor": {"biological_target": "T1, Sigma-1 receptor (Homo sapiens, UniProt Q99720)", "T1 construct": "purchased Eurofins Pharma Discovery Services", "T1 sequence (Q99720 whole entry, species assumed)": "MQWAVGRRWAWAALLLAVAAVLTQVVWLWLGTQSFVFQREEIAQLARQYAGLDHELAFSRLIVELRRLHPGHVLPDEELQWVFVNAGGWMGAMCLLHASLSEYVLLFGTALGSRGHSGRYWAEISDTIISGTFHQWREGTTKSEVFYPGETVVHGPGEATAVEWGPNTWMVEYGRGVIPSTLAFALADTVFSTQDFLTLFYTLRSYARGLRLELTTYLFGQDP", "test": "Secondary pharmacology panel (Eurofins)", "format": "binding", "method": "(§1) Second pharmacology screening was performed at Eurofins Pharma Discovery Services in a panel of 190 in vitro radioligand binding and enzyme assays covering a diverse set of enzymes, receptors, ion channels, and transporters."}, "HDAC5": {"biological_target": "T2, HDAC5 (Homo sapiens, UniProt Q9UQL6)", "T2 construct": "purchased Eurofins Pharma Discovery Services 2494", "T2 sequence (Q9UQL6 whole entry)": "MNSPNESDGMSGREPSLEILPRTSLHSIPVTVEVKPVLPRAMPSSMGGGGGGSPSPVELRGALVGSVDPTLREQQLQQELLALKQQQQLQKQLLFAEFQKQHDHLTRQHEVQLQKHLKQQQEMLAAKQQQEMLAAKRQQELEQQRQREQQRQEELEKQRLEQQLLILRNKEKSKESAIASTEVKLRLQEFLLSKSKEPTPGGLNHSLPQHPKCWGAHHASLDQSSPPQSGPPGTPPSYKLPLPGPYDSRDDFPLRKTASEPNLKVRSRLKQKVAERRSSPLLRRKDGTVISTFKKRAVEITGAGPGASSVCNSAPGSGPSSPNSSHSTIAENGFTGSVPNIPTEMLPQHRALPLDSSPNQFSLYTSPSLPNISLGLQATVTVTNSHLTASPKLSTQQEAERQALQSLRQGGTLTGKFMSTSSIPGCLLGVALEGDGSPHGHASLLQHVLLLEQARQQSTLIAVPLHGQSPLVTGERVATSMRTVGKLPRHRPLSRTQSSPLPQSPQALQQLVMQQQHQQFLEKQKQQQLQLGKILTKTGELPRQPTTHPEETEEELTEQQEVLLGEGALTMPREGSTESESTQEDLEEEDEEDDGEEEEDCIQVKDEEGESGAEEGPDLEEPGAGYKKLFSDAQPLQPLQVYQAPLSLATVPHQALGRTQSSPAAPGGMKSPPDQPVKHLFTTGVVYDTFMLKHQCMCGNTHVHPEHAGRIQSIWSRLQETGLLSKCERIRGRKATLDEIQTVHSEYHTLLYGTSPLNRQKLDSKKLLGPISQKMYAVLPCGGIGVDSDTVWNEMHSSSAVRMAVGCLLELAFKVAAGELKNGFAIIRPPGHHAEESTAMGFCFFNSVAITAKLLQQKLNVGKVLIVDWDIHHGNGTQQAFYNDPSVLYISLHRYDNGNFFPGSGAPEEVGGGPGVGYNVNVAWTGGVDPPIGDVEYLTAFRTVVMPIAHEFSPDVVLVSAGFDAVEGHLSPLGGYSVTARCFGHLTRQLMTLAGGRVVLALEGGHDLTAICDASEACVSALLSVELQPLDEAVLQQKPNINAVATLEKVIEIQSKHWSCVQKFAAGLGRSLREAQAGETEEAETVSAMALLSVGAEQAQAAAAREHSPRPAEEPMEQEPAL", "test": "HDAC enzymatic activity (Eurofins)", "format": "biochemical", "details": "Class IIA; ACY-1083 mean of two separate measurements, Ricolinostat and Tubastatin A one measurement"}, "HDAC8": {"biological_target": "T3, HDAC8 (Homo sapiens, UniProt Q9BY41)", "T3 construct": "purchased Eurofins Pharma Discovery Services 2247", "T3 sequence (Q9BY41 1-377)": "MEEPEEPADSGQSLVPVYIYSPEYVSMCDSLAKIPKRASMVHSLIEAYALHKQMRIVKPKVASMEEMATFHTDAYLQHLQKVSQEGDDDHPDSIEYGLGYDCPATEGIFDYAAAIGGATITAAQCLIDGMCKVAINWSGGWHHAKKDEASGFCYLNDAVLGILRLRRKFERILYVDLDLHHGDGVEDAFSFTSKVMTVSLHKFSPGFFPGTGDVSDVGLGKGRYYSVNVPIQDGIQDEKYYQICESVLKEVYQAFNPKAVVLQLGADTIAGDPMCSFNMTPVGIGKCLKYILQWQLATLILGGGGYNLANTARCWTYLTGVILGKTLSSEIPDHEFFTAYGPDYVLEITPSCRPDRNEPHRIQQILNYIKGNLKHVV", "test": "HDAC enzymatic activity (Eurofins)", "format": "biochemical", "details": "Class I; ACY-1083 mean of two separate measurements, Ricolinostat and Tubastatin A one measurement"}, "COPD HBEC ALI cultures [1]": {"test_system": "COPD HBEC ALI cultures", "test": "TNF challenge model in ALI, TEER and FITC-dextran permeability", "format": "cell-based, human", "details": "10 μM, four COPD donors"}, "HDAC7": {"biological_target": "T4, HDAC7 (Homo sapiens, UniProt Q8WUI4)", "T4 construct": "purchased Eurofins Pharma Discovery Services 2610", "T4 sequence (Q8WUI4 1-952)": "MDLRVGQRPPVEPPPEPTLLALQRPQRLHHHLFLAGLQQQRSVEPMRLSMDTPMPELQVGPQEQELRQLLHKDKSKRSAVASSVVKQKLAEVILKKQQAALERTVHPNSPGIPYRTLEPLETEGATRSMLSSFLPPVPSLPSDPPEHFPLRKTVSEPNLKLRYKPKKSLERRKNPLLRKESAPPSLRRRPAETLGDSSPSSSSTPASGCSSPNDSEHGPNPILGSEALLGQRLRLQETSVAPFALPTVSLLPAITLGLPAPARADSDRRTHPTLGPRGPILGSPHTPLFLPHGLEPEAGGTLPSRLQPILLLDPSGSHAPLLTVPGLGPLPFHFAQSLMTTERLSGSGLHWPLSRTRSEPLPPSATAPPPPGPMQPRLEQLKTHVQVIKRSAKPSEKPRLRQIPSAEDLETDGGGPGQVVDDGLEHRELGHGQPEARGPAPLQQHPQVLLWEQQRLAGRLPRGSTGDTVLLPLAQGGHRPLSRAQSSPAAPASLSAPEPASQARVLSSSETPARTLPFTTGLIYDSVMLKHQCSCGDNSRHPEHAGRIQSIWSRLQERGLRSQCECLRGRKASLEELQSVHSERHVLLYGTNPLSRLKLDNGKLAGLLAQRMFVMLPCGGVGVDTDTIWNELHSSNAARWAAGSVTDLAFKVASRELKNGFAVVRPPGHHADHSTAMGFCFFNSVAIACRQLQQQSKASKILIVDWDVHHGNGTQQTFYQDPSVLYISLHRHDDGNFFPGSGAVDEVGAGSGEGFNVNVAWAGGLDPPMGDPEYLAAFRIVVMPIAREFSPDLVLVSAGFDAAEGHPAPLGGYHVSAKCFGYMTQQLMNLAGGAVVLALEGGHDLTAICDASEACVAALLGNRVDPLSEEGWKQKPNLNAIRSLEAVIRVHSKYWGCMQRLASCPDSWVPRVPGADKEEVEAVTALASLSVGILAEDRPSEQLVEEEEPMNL", "test": "HDAC enzymatic activity (Eurofins)", "format": "biochemical", "details": "Class IIA; ACY-1083 mean of two separate measurements, Ricolinostat and Tubastatin A one measurement"}, "COPD HBEC ALI cultures [2]": {"test_system": "COPD HBEC ALI cultures", "test": "Cigarette smoke extract (CSE) challenge in ALI, FITC-dextran permeability", "format": "cell-based, human", "details": "10 μM pre-treatment 3 days, CSE 1, 3 and 6% for 48 hours, two COPD donors", "protocol": "The paracellular permeability was determined by using fluorescein isothiocyanate labeled 4kD-dextran (Sigma-Aldrich, St. Louis, USA). 18 hours after addition of 0.2 mg FITC-dextran in 200 μL medium to the apical side of the ALI cultures, the fluorescence in the basolateral medium was measured using PHERAstar FSX (excitation 485 nm and emission 520 nm) (BMG LABTECH, Ortenberg, Germany). The time point was chosen for optimal window in the assays as well as practical reasons and has been kept consistent in between different stimulations throughout this work. Data was plotted as fold-change of 0.1% DMSO control.\nCigarette smoke extract (CSE) experiments were performed using CSE containing media. In short, smoke from five filterless Kentucky research cigarettes, 3R4F (Kentucky Tobacco Research and Development Center, Lexington, USA), was bubbled through 25 ml of PBS at a speed of five minutes per cigarette. The CSE was filtered through a 0.2 μm sterile filter and stored at -80°C until addition to the basolateral side of HBEC ALI cultures from two COPD donors. […] Permeability was measured after 48 hours."}, "[3]": {"test_system": "healthy HBEC at ALI cultures", "test": "TEER in healthy HBEC ALI cultures, TNF challenge", "format": "cell-based, human", "details": "TNF-challenged healthy HBEC, p = 0.0187"}, "[4]": {"test": "Secondary pharmacology panel of >190 in vitro radioligand binding and enzyme assays", "details": "hits: HDAC5, HDAC7, COX2 and DAT", "method": "as §1"}, "COPD HBEC ALI cultures [5]": {"test_system": "COPD HBEC ALI cultures", "test": "Cytokine release in basolateral supernatants (MSD), TNF challenge", "format": "cell-based, human", "details": "10 μM, TNF 5, 20 and 50 ng/ml, day seven", "protocol": "TEER and permeability were measured after seven days.\nTo assess cytokines released, basolateral supernatants were collected on day seven and immediately frozen at -80°C until MSD analysis of IL-6, CCL2 and CXCL10. In short, U-PLEX MSD plates (Mesoscale Discovery, Rockville, Maryland, USA) were coated, washed and stored overnight. Standard curves were prepared and added in duplicates on each plate. Supernatants were thawed on ice and added to the plates, which were incubated on an orbital shaker for one hour before sulfo-tagged antibodies were added and incubated for another hour. Plates were washed, read buffer added and read on MESO SECTOR S 600 (Mesoscale Discovery, Rockville, Maryland, USA). Data was plotted as fold change to DMSO control."}}, "data": [{"substance": "ACY-1083", "values": [{"measurement": "IC50", "setting": "Sigma-1 receptor", "value": 17, "unit": "µM"}, {"measurement": "IC50", "setting": "HDAC5", "value": 4.17, "unit": "µM"}, {"measurement": "IC50", "setting": "HDAC8", "value": 15.8, "unit": "µM"}, {"measurement": "TEER vs DMSO control", "setting": "COPD HBEC ALI cultures [1]; TNF 0, 5, 20 and 50 ng/mL, after seven days", "value": "higher TEER at all concentrations of TNF"}, {"measurement": "paracellular permeability vs DMSO control", "setting": "COPD HBEC ALI cultures [1]; TNF 5, 20 and 50 ng/mL", "value": "lower permeability at 5, 20 and 50 ng/mL TNF"}, {"measurement": "IC50", "setting": "HDAC7", "value": 6.51, "unit": "µM"}, {"measurement": "paracellular permeability after CSE challenge", "setting": "COPD HBEC ALI cultures [2]", "value": "reduction in permeability at all concentrations"}, {"measurement": "TEER", "setting": "[3]", "value": "reversed this decrease"}, {"measurement": "hits below 10 μM in HDAC isoform panel and secondary pharmacology safety panels", "setting": "[4]", "value": 4}, {"measurement": "CCL2 protein induction in basolateral supernatant", "setting": "COPD HBEC ALI cultures [5]", "value": "reduced"}, {"measurement": "CXCL10 protein induction in basolateral supernatant", "setting": "COPD HBEC ALI cultures [5]", "value": "reduced"}, {"measurement": "IL-6 protein induction in basolateral supernatant", "setting": "COPD HBEC ALI cultures [5]", "value": "reduced"}]}]}
